For one data set, the system named is Sindbis virus SINV. The experiment in a line: microbe, parasite or virus in culture. Conditions: Vero, 24 h, read-out: SINV EC50 (µM).
The subject of the next data set is Chikungunya virus CHIKV. Description: microbe, parasite or virus in culture. To be noted: Vero, 24 h, read-out: CHIKV EC50 (µM).
Data set [1] in a line: in vitro. To be noted: african green monkey, vero cells.
A short description of data set [2]: in vitro. Conditions: hamster, bhk-21 cells.

The text below walks through data of publication doi:10.1101/2023.09.29.560149v2 (biorxiv, 2024).

One may read the EC50 as the concentration needed to bring the measured effect to its halfway point. As usually defined, the CC50 is the concentration that lowers cell viability or growth by half. Lower therefore signals greater toxicity to the cells.

With `O=C1Nc2ccc(Cl)cc2[C@@](C#CC2CC2)(C(F)(F)F)O1` [efavirenz], the EC50 with Sindbis virus SINV came out at 0.72 µM; with Chikungunya virus CHIKV it was 1.33 µM. For the same molecule, the CC50 at 24 h was 53.6 µM in “in vitro [1]” and 40.9 µM in “in vitro [2]”.
Regarding `C[C@H]1CC[C@]2(NC1)O[C@H]1C[C@H]3[C@@H]4CC[C@H]5C[C@@H](O)CC[C@]5(C)[C@H]4CC[C@]3(C)[C@H]1[C@@H]2C` [Tomatidine], the EC50 was determined as 2.47 µM in the data set on Sindbis virus SINV and 5.35 µM in the data set with Chikungunya virus CHIKV. In addition, the CC50 at 24 h came out at 17.2 µM in the data set “in vitro [1]” and 23.8 µM in “in vitro [2]”.
